In patent US20260151441A1, “NOVEL USE OF LACTOBACILLUS DELBRUECKII SUBSP. LACTIS STRAIN” (CKD BIO CORPORATION, priority 2022, published 2026):

Experiments:
[1] = Y-maze test in scopolamine-induced cognitive impairment animal model; format: in vivo; conditions: 5 mg/kg
Protocol: The Y-maze test is used to assess short-term memory and momentary spatial perception by evaluating the animal's ability to remember the previously explored arm, with higher memory performance indicated by a lower tendency to re-enter the same arm.
Specifically, scopolamine, which induces memory impairment, was administered together with either saline (vehicle), a known treatment for cognitive impairment or AD (donepezil or decursin), or the strain of the present invention, followed by the Y-maze test.
The Y-maze consists of three arms with dimensions of 40 cm in length, 3 cm in width, and 15 cm in height, with the angles between the arms set at 120°. […]
The control and experimental groups were placed at the center of the Y-maze, where they were allowed to explore the maze for 8 minutes. The movement of each individual was analyzed using EthoVision XT16 (Noldus, USA). The experimental results were obtained as spontaneous alternation behavior (%) and calculated according to the following equation: […]

[2] = Passive avoidance test in scopolamine-induced cognitive impairment animal model; format: in vivo, rodents; conditions: 5 mg/kg, 24 h after shock
Text: The passive avoidance test is a cognitive ability assessment experiment that utilizes the preference of rodents to stay in dark places.
Specifically, saline (as a vehicle), donepezil (a therapeutic agent for cognitive impairment or AD), decursin (a functional ingredient recognized for improving cognitive function), or the strain of the present invention was co-administered with scopolamine which induces memory impairment, followed by the passive avoidance test. […]
The control and experimental groups were placed in chambers consisting of a bright chamber and a dark chamber of the same size. […] After 24 hours, the animals were again placed in the bright chamber, and the time taken to enter the dark chamber was measured for up to 300 seconds to evaluate memory.

Compound | increase in spontaneous alternation behavior compared to vehicle-treated group (G2) [1] [fold] | memory recovery [2]
CC(C)=CC(=O)O[C@H]1Cc2cc3ccc(=O)oc3cc2OC1(C)C [decursin] | ~1.3 | about 87%
COc1cc2c(cc1OC)C(=O)C(CC1CCN(Cc3ccccc3)CC1)C2 (stereo not shown) [donepezil] | ~1.3 | about 74%
